Test results from US12600988B2, “Coronavirus pseudovirus packaging system, packaging method therefor, and application of coronavirus pseudovirus in evaluating disinfection efficacy” (priority 2020, dated 2026).
Entries after “also recorded” stand apart in the source; their conditions may differ.

Tested on: COVID-19 pseudovirus
Parameters: species or system COVID-19 (SARS-CoV-2)

With O=[O+][O-] [ozone] as the compound, how does the “inactivation of COVID-19 pseudovirus” value read?
Its value is “almost completely inactivated; also recorded: complete inactivation”.
